# Biological target: T1, KRAS G12C 1-169, his-tagged protein, GDP-loaded (Homo sapiens, UniProt P01116, G12C)
# T1 construct: KRAS G12C 1-169, his-tagged protein, GDP-loaded
# Assay: Biochemical assay: covalent modification of KRAS G12C measured by mass spectrometry (RapidFire/TOF or Q-Exactive)
# Assay type: binding
# Settings: covalent binding to (modification of) KRAS G12C after a ten minute incubation period
# Procedure, shortened: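 Intact-mass readout (TOF or Q-Exactive, charge-envelope deconvolution) gives percent covalent adduct from modified and unmodified species. Compound at 10, 30 or 100 μM was incubated at room temperature for 10 min to 24 h with 2 μM or 0.5 μM GDP-bound KRAS G12C 1-169 in Hepes/NaCl/MgCl2 buffer, then acid-quenched.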
row,Structure (SMILES),Binding %
1,"C=CC(=O)N1C[C@H](C)N(c2nc(N3CC(N(C)C)C3)nc3c(F)c(-c4c(C)ccc5cnn(C)c45)c(Cl)cc23)C[C@H]1C (atropisomer, axis not shown) [Compound 131, 1-((2R,5S)-4-((S)-6-chloro-7-(1,6-dimethyl-1H-indazol-7-yl)-2-(3-(dimethylamino)azetidin-1-yl)-8-fluoroquinazolin-4-yl)-2,5-dimethylpiperazin-1-yl)prop-2-en-1-one]",+ (+ indicates binding activity greater than 0% and up to 50%)
2,"C=CC(=O)N1C[C@H](C)N(c2nc(N3CC(N(C)C)C3)nc3c(F)c(-c4c(C)ccc5[nH]nc(C(F)(F)F)c45)c(Cl)cc23)C[C@H]1C [Compound 115, 1-((2R,5S)-4-(6-chloro-2-(3-(dimethylamino)azetidin-1-yl)-8-fluoro-7-(5-methyl-3-(trifluoromethyl)-1H-indazol-4-yl)quinazolin-4-yl)-2,5-dimethylpiperazin-1-yl)prop-2-en-1-one]",+ (+ indicates binding activity greater than 0% and up to 50%)
3,"C=CC(=O)N1C[C@H](C)N(c2nc(N3CC(N(C)C)C3)nc3c(F)c(-c4c(C)ccc5[nH]nc(N)c45)c(Cl)cc23)C[C@H]1C (atropisomer, axis not shown) [Compound 35, 1-((2R,5S)-4-((R)-7-(3-amino-5-methyl-1H-indazol-4-yl)-6-chloro-2-(3-(dimethylamino)azetidin-1-yl)-8-fluoroquinazolin-4-yl)-2,5-dimethylpiperazin-1-yl)prop-2-en-1-one]",+++ (+++ indicates binding activity greater than 80%)
4,"C=CS(=O)(=O)N1C[C@H](C)N(c2nc(N3CC(N(C)C)C3)nc3c(F)c(-c4c(C)ccc5[nH]nc(C)c45)c(Cl)cc23)C[C@H]1C [Compound 194, 1-(6-chloro-7-(3,5-dimethyl-1H-indazol-4-yl)-4-((2S,5R)-2,5-dimethyl-4-(vinylsulfonyl)piperazin-1-yl)-8-fluoroquinazolin-2-yl)-N,N-dimethylazetidin-3-amine]",+ (+ indicates binding activity greater than 0% and up to 50%)
5,"C=CC(=O)N1C[C@@H](C)N(c2nc(N3CC(N(C)C)C3)nc3c(F)c(-c4c(C)ccc5[nH]nc(N)c45)c(Cl)cc23)[C@@H](C)C1 [Compound 45, 1-((3R,5S)-4-(7-(3-amino-5-methyl-1H-indazol-4-yl)-6-chloro-2-(3-(dimethylamino)azetidin-1-yl)-8-fluoroquinazolin-4-yl)-3,5-dimethylpiperazin-1-yl)prop-2-en-1-one]",+++ (+++ indicates binding activity greater than 80%)
6,"C=CC(=O)N1CCN(c2nc(N3CC(N(C)C)C3)nc3c(F)c(-c4c(C)ccc5[nH]nc(C6CC6)c45)c(Cl)cc23)C[C@H]1C (atropisomer, axis not shown) [Compound 102, 1-((R)-4-((R)-6-chloro-7-(3-cyclopropyl-5-methyl-1H-indazol-4-yl)-2-(3-(dimethylamino)azetidin-1-yl)-8-fluoroquinazolin-4-yl)-2-methylpiperazin-1-yl)prop-2-en-1-one]",+++ (+++ indicates binding activity greater than 80%)
7,"C=CC(=O)N1C[C@H](C)N(c2nc(OCCN3CCC(F)(F)C3)nc3c(F)c(-c4c(C)ccc5onc(N)c45)c(Cl)cc23)C[C@H]1C [Compound 85, 1-((2R,5S)-4-(7-(3-amino-5-methylbenzo[d]isoxazol-4-yl)-6-chloro-2-(2-(3,3-difluoropyrrolidin-1-yl)ethoxy)-8-fluoroquinazolin-4-yl)-2,5-dimethylpiperazin-1-yl)prop-2-en-1-one]",+++ (+++ indicates binding activity greater than 80%)
8,"C=CC(=O)N1C[C@H](C)N(c2nc(N3CC(N(C)C)C3)nc3c(F)c(-c4c(F)ccc5cnn(C)c45)c(Cl)cc23)C[C@H]1C [Compound 145, 1-((2R,5S)-4-(6-chloro-2-(3-(dimethylamino)azetidin-1-yl)-8-fluoro-7-(6-fluoro-1-methyl-1H-indazol-7-yl)quinazolin-4-yl)-2,5-dimethylpiperazin-1-yl)prop-2-en-1-one]",+++ (+++ indicates binding activity greater than 80%)
9,"C=CC(=O)N1C[C@H](C)N(c2nc(N3CC(N(C)C)C3)nc3c(F)c(-c4c(C)ccc5[nH]nc(Br)c45)c(Cl)cc23)C[C@H]1C [Compound 40, 1-((2R,5S)-4-(7-(3-bromo-5-methyl-1H-indazol-4-yl)-6-chloro-2-(3-(dimethylamino)azetidin-1-yl)-8-fluoroquinazolin-4-yl)-2,5-dimethylpiperazin-1-yl)prop-2-en-1-one]",+++ (+++ indicates binding activity greater than 80%)
10,"C=CC(=O)N1C[C@H](C)N(c2nc(OC[C@@H]3C[C@H](OC)CN3C)nc3c(F)c(-c4c(C)ccc5cnn(C6CC6)c45)c(Cl)cc23)C[C@H]1C [Compound 199, 1-((2R,5S)-4-(6-chloro-7-(1-cyclopropyl-6-methyl-1H-indazol-7-yl)-8-fluoro-2-(((2S,4S)-4-methoxy-1-methylpyrrolidin-2-yl)methoxy)quinazolin-4-yl)-2,5-dimethylpiperazin-1-yl)prop-2-en-1-one]",+++ (+++ indicates binding activity greater than 80%)
11,"C=CC(=O)N1C[C@H](C)N(c2nc(N3CC(N(C)C)C3)nc3c(F)c(-c4c(C)ccc5onc(N)c45)c(Cl)cc23)C[C@H]1C [Compound 50, 1-((2R,5S)-4-(7-(3-amino-5-methylbenzo[d]isoxazol-4-yl)-6-chloro-2-(3-(dimethylamino)azetidin-1-yl)-8-fluoroquinazolin-4-yl)-2,5-dimethylpiperazin-1-yl)prop-2-en-1-one]",+++ (+++ indicates binding activity greater than 80%)
12,"C=CC(=O)N1[C@H](C)CN(c2nc(N3CC(N(C)C)C3)nc3c(F)c(-c4c(C)ccc5cnn(C)c45)c(Cl)cc23)C[C@@H]1C (atropisomer, axis not shown) [Compound 142, 1-((2S,6R)-4-((R)-6-chloro-7-(1,6-dimethyl-1H-indazol-7-yl)-2-(3-(dimethylamino)azetidin-1-yl)-8-fluoroquinazolin-4-yl)-2,6-dimethylpiperazin-1-yl)prop-2-en-1-one]",+++ (+++ indicates binding activity greater than 80%)
13,"C=CC(=O)N1CCN(c2nc(N3CC(N(C)C)C3)nc3c(F)c(-c4c(C)ccc5[nH]nc(C6CC6)c45)c(Cl)cc23)CC1 (atropisomer, axis not shown) [Compound 104, (R)-1-(4-(6-chloro-7-(3-cyclopropyl-5-methyl-1H-indazol-4-yl)-2-(3-(dimethylamino)azetidin-1-yl)-8-fluoroquinazolin-4-yl)piperazin-1-yl)prop-2-en-1-one]",+++ (+++ indicates binding activity greater than 80%)
14,"C=CC(=O)N1C[C@H](C)N(c2nc(N3CC(N(C)C)C3)nc3c(F)c(-c4c(C)ccc5[nH]nc(Cl)c45)c(Cl)cc23)C[C@H]1C [Compound 23, 1-((2R,5S)-4-(6-chloro-7-(3-chloro-5-methyl-1H-indazol-4-yl)-2-(3-(dimethylamino)azetidin-1-yl)-8-fluoroquinazolin-4-yl)-2,5-dimethylpiperazin-1-yl)prop-2-en-1-one]",+++ (+++ indicates binding activity greater than 80%)

# — US11377441B2, “Covalent inhibitors of KRAS” (Araxes Pharma LLC, priority 2017, dated 2022)
